Tests used:
TYK2 = target: T1, TYK2 (Homo sapiens, UniProt P29597); experiment: Competition binding assay, TYK2
T1 construct: made in house
Source text: (§1) Competition Binding Assay to Determine Binding Constants (Kd) of the Compounds Against JAK Kinases
(§2) Competition binding assays used herein were developed, validated and performed as described in Fabian et al., Nature Biotechnology 2005, 23,329-336. Kinases were produced as fusions to T7 phage (See, Fabian et al. or WO04/015142) or alternatively, the kinases were expressed in HEK-293 cells and subsequently tagged with DNA for PCR detection (See, WO08/005310). For the binding assays, streptavidin-coated magnetic beads were treated with biotinylated affinity ligands for 30 min at rt to generate affinity resins. The liganded beads were blocked with excess biotin and washed with blocking buffer (SeaBlock (Pierce), 1% BSA, 0.05% Tween 20, 1 mM DTT) to remove unbound ligand and to reduce non-specific binding. Binding reactions were assembled by combining kinase, liganded affinity beads, and test compounds in 1× binding buffer (20% SeaBlock, 0.17×PBS, 0.05% Tween 20, 6 mM DTT). Test compounds were prepared as 100× stocks in DMSO and rapidly diluted into the aqueous environment. DMSO was added to control assays lacking a test compound. Primary screen interactions were performed in polypropylene 384-well plates in a final volume of 34 μL, while Kd determinations were performed in polystyrene 96-well plates in a final volume of 135 μL. The assay plates were incubated at room temperature with shaking for 1 hour, long enough for binding reactions to reach equilibrium, and the affinity beads were washed extensively with wash buffer (1× PBS, 0.05% Tween 20) to remove unbound protein. The beads were then resuspended in elution buffer (1× PBS, 0.05% Tween 20, 2 μM non-biotinylated affinity ligand) and incubated at room temperature with shaking for 30 min. The kinase concentration in the eluates was measured by quantitative PCR. Each kinase was tested individually against each compound. Kds were determined using eleven serial threefold dilutions. A selectivity score, which is a quantitative measure of selectivity of a compound against a panel of enzymes, may be calculated for a compound by dividing the number of enzymes for which a compound meets a set criteria, (for example, a binding constant of 100 nM or less), by the total number of enzymes tested.

[1] = system: distinct kinases tested excluding mutant variants, typically 359 or 386 kinases; experiment: Kinase selectivity score from competition binding panel; settings: compound at 10 μM; fraction of kinases with inhibition of 90% or greater
Method: as §2

JAK3 = target: T2, JAK3 (Homo sapiens, UniProt P52333); experiment: Competition binding assay, JAK3
T2 construct: made in house
T2 sequence (P52333 1-1124): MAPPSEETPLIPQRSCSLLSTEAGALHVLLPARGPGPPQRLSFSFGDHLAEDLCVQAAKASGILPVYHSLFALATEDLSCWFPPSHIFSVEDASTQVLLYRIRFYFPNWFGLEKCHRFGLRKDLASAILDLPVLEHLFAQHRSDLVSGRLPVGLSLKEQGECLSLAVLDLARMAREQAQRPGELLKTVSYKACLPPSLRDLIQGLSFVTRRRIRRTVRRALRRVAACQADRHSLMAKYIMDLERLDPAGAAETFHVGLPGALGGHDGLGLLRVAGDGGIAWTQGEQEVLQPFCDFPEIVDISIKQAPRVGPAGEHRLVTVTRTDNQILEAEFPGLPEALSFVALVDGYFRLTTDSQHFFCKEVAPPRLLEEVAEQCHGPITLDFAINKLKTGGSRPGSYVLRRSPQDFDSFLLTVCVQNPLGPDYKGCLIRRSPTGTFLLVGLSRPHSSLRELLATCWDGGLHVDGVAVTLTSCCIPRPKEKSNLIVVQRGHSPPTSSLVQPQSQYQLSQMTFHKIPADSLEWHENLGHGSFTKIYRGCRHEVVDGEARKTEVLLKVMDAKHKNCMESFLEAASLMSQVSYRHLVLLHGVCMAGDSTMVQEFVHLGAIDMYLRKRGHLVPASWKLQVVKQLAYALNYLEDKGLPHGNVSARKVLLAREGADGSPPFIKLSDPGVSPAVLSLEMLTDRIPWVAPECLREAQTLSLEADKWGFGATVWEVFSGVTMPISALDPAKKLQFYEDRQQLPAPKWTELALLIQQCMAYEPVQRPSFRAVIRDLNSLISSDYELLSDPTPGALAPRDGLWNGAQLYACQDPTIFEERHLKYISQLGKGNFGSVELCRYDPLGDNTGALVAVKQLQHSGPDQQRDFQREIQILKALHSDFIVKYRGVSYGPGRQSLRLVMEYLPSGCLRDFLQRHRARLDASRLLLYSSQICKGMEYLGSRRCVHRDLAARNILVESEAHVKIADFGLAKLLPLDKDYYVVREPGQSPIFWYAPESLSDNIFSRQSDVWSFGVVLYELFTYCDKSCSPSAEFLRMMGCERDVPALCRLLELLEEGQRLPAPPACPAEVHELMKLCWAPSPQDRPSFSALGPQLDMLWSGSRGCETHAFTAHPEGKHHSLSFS
Source text: as §1, §2

[2] = system: GM-CSFR/JAK2/STAT5 pathway in CSTF-1 cells; experiment: CSTF-1 cell-based reporter assay (beta-lactamase, GM-CSF stimulated); parameters: species or system human; settings: Homo sapiens; GM-CSF at 2 ng/mL, 4 hours; read-out: Cell Assay: CS TF-1 reporter assay IC50
Method: CSTF-1 Cell-Based Reporter Assay
CSTF-1 cells are derived from the human erythroleukemia cell line that is growth dependent on GM-CSF and has an intact GM-CSFR/JAK2/STAT5 pathway. The cell line contains stably integrated beta-lactamase reporter gene under the control of the […] (irf 1) response element recognized by the activated transcription factor STATS. csTF-1 cells (Invitrogen K1219) were washed with assay media (97% OPTIMEM/ 0.5% dialyzed FBS/0.1 mM NEAA/1 mM Na pyr/P/S) and seeded in the same media at 5×10^5 cell/mL in T150 flask. After 16 hour incubation, cells were seeded at 2×10^5 cell/well in 50 μl volume, into Costar, clear bottom, 96-well assay plates. Serial dilutions of compounds were added to the plates with final DMSO concentration at 0.5% and GM-CSF at 2 ng/mL and the plates were then incubated at […] and 5% CO2 for 4 hours. The plates were brought to room temperature before adding Substrate Mixture according to manufacturer's protocol (Invitrogen, Catalog #K1085). The assay plates containing the substrate mixture were incubated in the dark at room temperature for 2 hours. Blue and green fluorescence was measured with excitation at 409 nm and emission at 460 nm (for blue) and excitation at 409 nm and emission at 530 nm (for green) using Spectra Max Gemini EM.

JAK2 = target: T3, JAK2 (Homo sapiens, UniProt O60674); experiment: Competition binding assay, JAK2
T3 construct: made in house
Source text: as §1, §2

T3 sequence (O60674 whole entry): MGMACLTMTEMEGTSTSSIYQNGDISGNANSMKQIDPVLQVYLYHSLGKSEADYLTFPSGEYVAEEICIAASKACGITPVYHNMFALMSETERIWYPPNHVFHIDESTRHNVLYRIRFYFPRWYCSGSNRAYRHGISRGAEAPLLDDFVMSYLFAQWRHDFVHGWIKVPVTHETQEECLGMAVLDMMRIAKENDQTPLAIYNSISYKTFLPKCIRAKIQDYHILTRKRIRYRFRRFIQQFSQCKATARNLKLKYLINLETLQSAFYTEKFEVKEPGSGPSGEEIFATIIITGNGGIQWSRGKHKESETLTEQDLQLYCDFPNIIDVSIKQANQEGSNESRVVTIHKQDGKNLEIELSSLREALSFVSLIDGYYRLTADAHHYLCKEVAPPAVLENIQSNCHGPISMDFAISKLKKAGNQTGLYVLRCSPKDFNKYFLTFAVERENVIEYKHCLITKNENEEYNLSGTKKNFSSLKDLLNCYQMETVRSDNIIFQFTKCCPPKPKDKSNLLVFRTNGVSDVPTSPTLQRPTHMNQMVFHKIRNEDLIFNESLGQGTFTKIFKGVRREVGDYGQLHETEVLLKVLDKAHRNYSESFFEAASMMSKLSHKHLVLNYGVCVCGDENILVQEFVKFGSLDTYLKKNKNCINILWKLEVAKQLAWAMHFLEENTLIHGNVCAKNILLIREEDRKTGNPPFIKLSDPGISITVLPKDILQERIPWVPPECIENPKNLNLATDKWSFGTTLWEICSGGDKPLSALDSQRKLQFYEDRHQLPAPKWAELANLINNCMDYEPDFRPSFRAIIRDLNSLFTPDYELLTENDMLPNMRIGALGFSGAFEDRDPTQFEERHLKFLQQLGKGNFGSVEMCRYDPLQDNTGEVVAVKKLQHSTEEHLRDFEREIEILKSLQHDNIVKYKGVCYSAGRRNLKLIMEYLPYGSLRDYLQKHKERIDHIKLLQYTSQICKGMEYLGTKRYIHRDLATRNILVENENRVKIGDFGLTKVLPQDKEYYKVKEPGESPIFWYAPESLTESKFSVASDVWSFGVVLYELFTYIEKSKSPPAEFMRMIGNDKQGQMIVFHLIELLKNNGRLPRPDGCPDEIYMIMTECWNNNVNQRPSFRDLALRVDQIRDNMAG
T1 sequence (P29597 whole entry): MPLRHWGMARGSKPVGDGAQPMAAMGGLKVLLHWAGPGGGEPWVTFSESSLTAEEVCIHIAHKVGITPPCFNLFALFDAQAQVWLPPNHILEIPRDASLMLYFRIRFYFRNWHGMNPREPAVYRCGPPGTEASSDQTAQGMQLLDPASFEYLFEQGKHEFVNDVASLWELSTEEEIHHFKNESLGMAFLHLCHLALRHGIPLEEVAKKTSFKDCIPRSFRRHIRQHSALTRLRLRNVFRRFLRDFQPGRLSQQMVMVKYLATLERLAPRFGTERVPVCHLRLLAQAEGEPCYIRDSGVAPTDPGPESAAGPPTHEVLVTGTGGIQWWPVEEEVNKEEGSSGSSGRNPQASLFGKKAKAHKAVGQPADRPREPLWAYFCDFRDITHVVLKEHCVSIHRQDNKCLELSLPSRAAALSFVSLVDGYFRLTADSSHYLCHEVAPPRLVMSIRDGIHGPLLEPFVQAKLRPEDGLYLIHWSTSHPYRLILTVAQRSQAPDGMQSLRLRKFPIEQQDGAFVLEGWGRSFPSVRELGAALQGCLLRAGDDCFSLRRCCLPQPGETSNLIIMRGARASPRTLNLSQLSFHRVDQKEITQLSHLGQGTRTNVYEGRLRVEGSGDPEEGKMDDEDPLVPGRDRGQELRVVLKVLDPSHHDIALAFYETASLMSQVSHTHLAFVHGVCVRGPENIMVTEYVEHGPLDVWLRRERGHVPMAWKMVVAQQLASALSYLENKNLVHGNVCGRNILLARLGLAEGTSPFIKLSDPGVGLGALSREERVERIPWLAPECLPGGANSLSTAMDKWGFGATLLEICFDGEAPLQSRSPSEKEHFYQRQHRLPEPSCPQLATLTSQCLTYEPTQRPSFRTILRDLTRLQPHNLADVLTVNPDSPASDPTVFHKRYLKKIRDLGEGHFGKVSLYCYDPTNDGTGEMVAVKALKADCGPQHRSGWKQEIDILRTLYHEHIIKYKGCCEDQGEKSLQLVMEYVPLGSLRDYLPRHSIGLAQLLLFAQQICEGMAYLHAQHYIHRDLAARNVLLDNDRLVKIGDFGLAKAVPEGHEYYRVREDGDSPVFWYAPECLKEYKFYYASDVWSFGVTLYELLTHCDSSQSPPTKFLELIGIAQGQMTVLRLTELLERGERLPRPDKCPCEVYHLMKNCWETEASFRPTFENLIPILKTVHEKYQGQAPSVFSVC

For `Cc1cc(Nc2nc(C(O)c3ccc(F)cc3)nc3sccc23)n[nH]1` (racemic) [Example 4, (R,S)-(4-fluorophenyl)(4-(5-methyl-1H-pyrazol-3-ylamino)thieno[2,3-d]pyrimidin-2-yl)methanol], the Kd (TYK2) was at most 10 nM, the “S-Score: S(10) at 10 μM” value [1] was “B (0.3 < B ≦ 0.4)” and the Kd (JAK3) was at most 10 nM. For the same compound, the IC50 [2] was at most 100 nM and the Kd (JAK2) was at most 1 nM.

In the case of `Cc1cc(Nc2nc(C(O)c3ccc(F)cc3)nc3ccsc23)n[nH]1` (racemic) [Example 6, (R,S)-4-Fluorophenyl)(4-(5-methyl-1H-pyrazol-3-ylamino)thieno[3,2-d]pyrimidin-2-yl)methanol], the Kd (TYK2) is reported as at most 10 nM, the “S-Score: S(10) at 10 μM” value [1] is reported as “A (A ≦ 0.3)” and the Kd (JAK3) is reported as at most 10 nM. It also gave an IC50 [2] of at most 100 nM and a Kd (JAK2) of at most 1 nM.

For `COC(c1ccc(F)cc1)c1nc(Nc2cc(C)[nH]n2)c2ccsc2n1` (racemic) [Example 9, (R,S)-2-((4-fluorophenyl)(methoxy)methyl)-N-(5-methyl-1H-pyrazol-3-yl)thieno[2,3-d]pyrimidin-4-amine], the Kd (TYK2) was at most 10 nM, the “S-Score: S(10) at 10 μM” value [1] was “A (A ≦ 0.3)” and the Kd (JAK3) was 10 to 100 nM. For the same compound, the IC50 [2] was 100 to 500 nM and the Kd (JAK2) was at most 1 nM.

For `Cc1cc(Nc2nc(C(O)c3ccc(F)cc3)nc3scc(C)c23)n[nH]1` (racemic) [Example 11, (R,S)-(4-Fluorophenyl)(5-methyl-4-(5-methyl-1H-pyrazol-3-ylamino)thieno[2,3-d]pyrimidin-2-yl)methanol], the Kd (TYK2) was over 100 nM, the “S-Score: S(10) at 10 μM” value [1] was “A (A ≦ 0.3)” and the Kd (JAK3) was over 100 nM. For the same compound, the IC50 [2] was over 500 nM and the Kd (JAK2) was over 10 nM.

`Cc1csc2nc(C(O)c3ccc(F)cc3)nc(Nc3cc[nH]n3)c12` (racemic) [Example 13, (R,S)-(4-(1H-pyrazol-3-ylamino)-5-methylthieno[2,3-d]pyrimidin-2-yl)(4-fluorophenyl)methanol] was tested, and the Kd (TYK2) was over 100 nM, the “S-Score: S(10) at 10 μM” value [1] was “A (A ≦ 0.3)” and the Kd (JAK3) was over 100 nM. The IC50 [2] was over 500 nM and the Kd (JAK2) was over 10 nM.

With `Cc1cc(Nc2nc(C(O)c3ccc(F)cc3)nc3sc(C)cc23)n[nH]1` (racemic) [Example 16, (R,S)-(4-fluorophenyl)(6-methyl-4-(5-methyl-1H-pyrazol-3-ylamino)thieno[2,3-d]pyrimidin-2-yl)methanol] the Kd (TYK2) was at most 10 nM, the “S-Score: S(10) at 10 μM” value [1] was “C (0.4 < C ≦ 0.5)” and the Kd (JAK3) was 10 to 100 nM. The IC50 [2] was at most 100 nM and the Kd (JAK2) was at most 1 nM.

`Cc1cc2c(Nc3cc[nH]n3)nc(C(O)c3ccc(F)cc3)nc2s1` (racemic) [Example 17, (R,S)-(4-(1H-pyrazol-3-ylamino)-6-methylthieno[2,3-d]pyrimidin-2-yl)(4-fluorophenyl)methanol] was tested, and the Kd (TYK2) was over 100 nM, the “S-Score: S(10) at 10 μM” value [1] was “A (A ≦ 0.3)” and the Kd (JAK3) was 10 to 100 nM. For the same compound, the IC50 [2] was 100 to 500 nM and the Kd (JAK2) was at most 1 nM.

`Cc1cc(Nc2nc(C(C)(O)c3ccc(F)cc3)nc3ccsc23)n[nH]1` (racemic) [Example 18, (R,S)-1-(4-fluorophenyl)-1-(4-(5-methyl-1H-pyrazol-3-ylamino)thieno[3,2-d]pyrimidin-2-yl)ethanol] gave a Kd (TYK2) of at most 10 nM, a Kd (JAK3) of at most 10 nM and an IC50 [2] of at most 100 nM. For the same compound, the Kd (JAK2) was at most 1 nM.

In the case of `Cc1cc(Nc2nc(C(O)c3ccc(F)cc3)nc3cc(C)sc23)n[nH]1` (racemic) [Example 21, (R,S)-(4-fluorophenyl)(6-methyl-4-(5-methyl-1H-pyrazol-3-ylamino)thieno[3,2-d]pyrimidin-2-yl)methanol], the Kd (TYK2) is reported as at most 10 nM, the “S-Score: S(10) at 10 μM” value [1] is reported as “B (0.3 < B ≦ 0.4)” and the Kd (JAK3) is reported as at most 10 nM. For the same compound, the IC50 [2] was at most 100 nM and the Kd (JAK2) was at most 1 nM.

`CC(C)(C)c1cc2nc(C(O)c3ccc(F)cc3)nc(Nc3cc[nH]n3)c2s1` (racemic) [Example 29, (R,S)-(4-(1H-pyrazol-3-ylamino)-6-tert-butylthieno[3,2-d]pyrimidin-2-yl)(4-fluorophenyl)methanol] was tested, and the Kd (TYK2) was over 100 nM, the “S-Score: S(10) at 10 μM” value [1] was “A (A ≦ 0.3)” and the Kd (JAK3) was over 100 nM. The IC50 [2] was 100 to 500 nM and the Kd (JAK2) was 1 to 10 nM.

With `Cc1cc(Nc2nc(C(O)c3ccc(F)cc3)nc3cscc23)n[nH]1` (racemic) [Example 32, (R,S)-(4-fluorophenyl)(4-(5-methyl-1H-pyrazol-3-ylamino)thieno[3,4-d]pyrimidin-2-yl)methanol] the Kd (TYK2) was at most 10 nM, the “S-Score: S(10) at 10 μM” value [1] was “B (0.3 < B ≦ 0.4)” and the Kd (JAK3) was at most 10 nM. It also gave an IC50 [2] of at most 100 nM and a Kd (JAK2) of at most 1 nM.

`Cc1cc(Nc2nc(C(F)(F)c3ccc(F)cc3)nc3sccc23)n[nH]1` [Example 1, 2-(difluoro(4-fluorophenyl)methyl)-N-(5-methyl-1H-pyrazol-3-yl)thieno[2,3-d]pyrimidin-4-amine] was tested, and the Kd (TYK2) was at most 10 nM, the “S-Score: S(10) at 10 μM” value [1] was “B (0.3 < B ≦ 0.4)” and the Kd (JAK3) was at most 10 nM. The IC50 [2] was at most 100 nM and the Kd (JAK2) was at most 1 nM.

`Fc1ccc(C(F)(F)c2nc(Nc3cc[nH]n3)c3ccsc3n2)cc1` [Example 2, 2-(difluoro(4-fluorophenyl)methyl)-N-(1H-pyrazol-3-yl)thieno[2,3-d]pyrimidin-4-amine] was tested, and the Kd (TYK2) was at most 10 nM, the “S-Score: S(10) at 10 μM” value [1] was “A (A ≦ 0.3)” and the Kd (JAK3) was 10 to 100 nM. It also gave an IC50 [2] of at most 100 nM and a Kd (JAK2) of at most 1 nM.

In the case of `Cc1csc2c(Nc3cc[nH]n3)nc(C(O)c3ccc(F)cc3)nc12` (stereo not drawn) [Example 25, (4-(1H-Pyrazol-3-ylamino)-7-methylthieno[3,2-d]pyrimidin-2-yl)(4-fluorophenyl)methanol], the Kd (TYK2) is reported as at most 10 nM, the Kd (JAK3) is reported as 10 to 100 nM and the IC50 [2] is reported as 100 to 500 nM. The Kd (JAK2) was 1 to 10 nM.

With `Cc1cc2c(Nc3cn(C)cn3)nc(C(O)c3ccc(F)cc3)nc2s1` (stereo not drawn) [Example 34, (4-fluorophenyl)(6-methyl-4-(1-methyl-1H-imidazol-4-ylamino)thieno[2,3-d]pyrimidin-2-yl)methanol] the “S-Score: S(10) at 10 μM” value [1] was “A (A ≦ 0.3)”, the Kd (JAK3) was over 100 nM and the IC50 [2] was 100 to 500 nM. It also gave a Kd (JAK2) of at most 1 nM.

— patent publication US20130317045A1, “THIENOPYRIDINE AND THIENOPYRIMIDINE COMPOUNDS AND METHODS OF USE THEREOF” (AMBIT BIOSCIENCES CORPORATION, priority 2010, published 2013)
